{"source": "patent US20070087978A1", "about": "“Method of Controlling Animal Pests” (priority 1999, published 2007)", "key": {"white flies": {"system": "white flies", "assay": "Control of white flies on poinsettia", "type": "in vivo", "description": "It was compared to untreated plants or plants treated with the commercial insecticides Bifenthrin, Neem Oil or Acephate."}, "[1]": {"system": "two spotted spider mite, Tetranychus urticae", "assay": "Spider mite control on greenhouse-grown potted miniature roses", "type": "in vivo", "details": "rate 0.4 oz. per 10 gallons", "description": "Mites are a serious pest of plants grown throughout the world. […] It was compared to untreated control plants or plants treated with the commercial miticide, Avermectin, (Avid) at 0.4 oz. Per 10 gallons. There were six replicate plants per treatment. Adult and nymph spider mites were counted on three areas of each plant (upper, middle, lower). The sum of these three measurements is presented."}, "Spider Mite": {"system": "Spider Mite", "type": "in vivo", "details": "0.4 ounces per 10 gallons", "experimental": "Another experiment was conducted on Marigolds in 6-inch pots. […] It was compared to untreated controls, the commercial miticide Avermectin (Avid, Merck) at 0.4 ounces per 10 gallons, and the commercial Neem-based insecticide Triact 90 at 10.0 mL per liter. There were 6 replications. Plant samples of 5 leaves were taken randomly from upper to lower plant areas."}, "[2]": {"system": "nematode Aphielenchoides frageria", "assay": "Nematode trial on Anemone vitfolia", "type": "in vivo", "details": "repeated measure ANOVA and Kruskal-Wallis ANOVA", "description": "In another trial, no control of the nematode Aphielenchoides […] on Anemone vitfolia was found as to nematode count when measured by repeated measure analysis of variance (ANOVA) and non-[…] for either KT-19827 or Avermectin. […] The symptomatic leaf analysis was done at the end of the 12 week trial period, during which 6 sprays were applied at 2 week intervals. ANOVA was the analytical measurement methodology."}, "Erwinia Amylovora": {"system": "Erwinia Amylovora", "assay": "KT-19827 compared with an SAR on pear with Erwinia", "type": "in vivo", "description": "Systemic Activator Resistance (SAR) materials affect the treated plant so it resists outbreaks of disease over longer periods of time. KT-19827 was compared with a leading commercial SAR called Bion or Actiguard (Acibenszolar-S-Methyl by Novaritis) against Erwinia Amylovora on pear trees, variety “Butirra”. The test was for the full growing season. Efficacy against Erwinia on the trees and fruit was 98% for […], 73.6% for Bion and zero on the untreated control pear trees. Standard label rates for each product were applied as a foliar spray in an equal manner.\nThe study was not designed to measure the comparative quantity of pears produced on the three plots."}, "[3]": {"system": "silverleaf whitefly, Bemista argentifolii", "type": "in vivo", "details": "3 days after treatment, rate 2.5 oz/10 gal. water", "experimental": "In another study, twenty poinsettia plants were planted into 6.0 inch containers and were grown in a greenhouse and arranged in a completely randomized design (CRD). […] Plants were sampled before (precount) and 3 days after treatment (DAT) by randomly harvesting 10 leaves from each plant and then counting the number of live and dead whitefly nymphs.\nAll data were analyzed in a completely randomized design using a two-way analysis of variance (ANOVA) for the number of live whitefly nymphs and percent mortality 3 days after treatment. Percent mortality was determined by dividing the number of dead whiteflies by the total number of whiteflies (alive and dead)."}, "Erwinia (Fireblight)": {"system": "Erwinia (Fireblight)", "details": "in vivo", "description": "A series of foliar sprays was applied before, during and after bloom and later in the season as needed. […] This unexpected, unusual multiple benefit indicates a phytotherapeutic defense wherein the copper molecule, it is believed, is rendered metabolizable by the plant, thereby enhancing its own defense characteristics. The molecule of copper is rendered systemic so that its action is accomplished, most importantly, inside the treated plants. Thus a continuity of protection and a reinvigorating effect on the plant are assured, which is evidenced by the quantity and unblemished quality of the fruit.\nIn a replicated study with controls, 10 foliar sprays were applied between March and August at times most useful to control the disease in the course of the season's adverse weather variables which encourage Erwinia. By the time of harvest, the normal state of distress of the trees' photosynthetic activity with standard copper bactericides such as copper oxychloride or the classic Bordeau mixture was missing. The consequences of this physiology were very evident at the time of harvest quantitatively and qualitatively."}}, "data": [{"molecule": "Cc1c(COC(=O)[C@@H]2[C@H](/C=C(\\Cl)C(F)(F)F)C2(C)C)cccc1-c1ccccc1", "note": "(racemic) [Befenthria, Bifenthrin]", "values": [{"measurement": "Mean Number of White Flies", "setting": "white flies; 6 Days After Treatment, rate 0.1", "result": "27.7 living whitefly immatures per leaf"}, {"measurement": "Mean Number of White Flies", "setting": "white flies; 10 Days After Treatment, rate 0.1", "result": "8.7 living whitefly immatures per leaf"}]}, {"molecule": "CC[C@H](C)[C@H]1O[C@]2(C=C[C@@H]1C)C[C@@H]1C[C@@H](C/C=C(\\C)[C@@H](O[C@H]3C[C@H](OC)[C@@H](O[C@H]4C[C@H](OC)[C@@H](O)[C@H](C)O4)[C@H](C)O3)[C@@H](C)/C=C/C=C3\\CO[C@@H]4[C@H](O)C(C)=C[C@@H](C(=O)O1)[C@]34O)O2", "note": "[Avermectin]", "values": [{"measurement": "Mean Number of Adult and Nymph Mites", "setting": "[1]; 6 Days After Treatment, sum of upper, middle, lower plant areas", "result": 0, "unit": "b"}, {"measurement": "Mean Number of Adult and Nymph Mites", "setting": "[1]; 10 Days After Treatment", "result": 0.2, "unit": "b"}, {"measurement": "Mean Number of Adult and Nymph Mites", "setting": "[1]; 16 Days After Treatment", "result": 0.7, "unit": "b"}, {"measurement": "mite population, Week 2", "setting": "Spider Mite", "result": 6.2, "unit": "c"}, {"measurement": "mite population, Week 3", "setting": "Spider Mite", "result": 23.8, "unit": "c"}, {"measurement": "mite population, Week 1", "setting": "Spider Mite; samples of 5 leaves", "result": 0.0, "unit": "b"}, {"measurement": "Mean Number of White Flies", "setting": "white flies; 6 Days After Treatment, rate 0.5", "result": "26.8 living whitefly immatures per leaf"}, {"measurement": "Mean Number of White Flies", "setting": "white flies; 10 Days After Treatment, rate 0.5", "result": "44.5 living whitefly immatures per leaf"}, {"measurement": "control as to nematode count", "setting": "[2]", "result": "no control"}]}, {"molecule": "CSC(=O)c1cccc2nnsc12", "note": "[Bion, Acibenszolar-S-Methyl]", "values": [{"measurement": "packets of harvested pears showing evidence of disease", "setting": "Erwinia Amylovora; at harvest", "result": "17 out of 238"}, {"measurement": "Efficacy against Erwinia on the trees and fruit", "setting": "Erwinia Amylovora; pear variety Butirra, full growing season, standard label rates, foliar spray", "result": 73.6, "unit": "%"}]}, {"molecule": "CCOP(=S)(OCC)Oc1nc(Cl)c(Cl)cc1Cl", "note": "[Chlorpyrifos, chlorpyrifos]", "values": [{"measurement": "Live Whitefly Nymphs (3 DAT)", "setting": "[3]", "result": 143.0, "unit": "bc"}, {"measurement": "% Mortality", "setting": "[3]; dead / total whiteflies", "result": 34.0, "unit": "ab %"}]}, {"molecule": "tannate complex of picro cupric ammonium formate [KT-19827]", "values": [{"measurement": "damage to tender tissue (blooms)", "setting": "Erwinia (Fireblight)", "result": "without damage to tender blooms"}]}]}
